Values quoted from earlier work, collected in patent US5643912A, “Pyrazinoic acid esters as anti-mycobacterium avium agents” (The Research Foundation of State University of NY, priority 1996, dated 1997).

Tested on: Mycobacterium (M.) tuberculosis
Conditions: cited from earlier work

NC(=O)c1cnccn1 [pyrazinamide]
resistance development: resistance develops quickly
